According to patent US10041105B2, “Methods and devices for detection of resistance to an enzyme inhibitor” (priority 2014, dated 2018):

Columns and labels:
[1] = molecular target: TEM-2 beta lactamase (Escherichia coli, UniProt P62593, Q37K); assay: Beta lactamase luminescent assay with inhibitor reagent mixes; format: biochemical
Procedure: (§1) The reagent mix was prepared as a 2× concentrated solution. The 2× concentrated reagent mix contained 50 mM HEPES (pH 7.0 to 7.2), 0.2 mM ZnCl2, 8 mM ATP, 10 mM DTT, 0.1 mM Coenzyme A, 5 micrograms/mL luciferase, 0.01 mM Cephalosporin-O-Luciferin, 0.1 mg/mL BSA, 8 mM CaCl2, 30 mM MgCl2, and 1% Triton X-100. Cephalosporin-O-Luciferin was used as a beta lactamase substrate. This substrate was synthesized and purified according to a procedure published in a scientific article (Angew. Chem. Int. Ed. 2007 Vol. 46, pp. 7031-7034), which is cited here solely as a reference.
(§2) Genes encoding five species of beta lactamase were synthesized and cloned into an E. coli expression vector. The E. coli cells transformed with the expression vector containing the gene encoding a beta lactamase was induced to express the enzyme. The cells were then pelleted, suspended in a sample buffer (Fisher Scientific Cat. No. 90084) and sonicated to lyse the cells.
(§3) 2× concentrated reagent mixes were prepared. The 2× reagent mix without a beta lactamase inhibitor or antibiotic (Reagent Mix I) was prepared according to the composition provided in Example 6. The 2× concentrated reagent mix containing a beta lactamase inhibitor or imipenem (Reagent Mix IIb) was prepared by supplementing the Reagent Mix I with 64 micrograms/mL of clavulanate (Reagent Mix IIa) or 64 micrograms/mL of imipenem (Reagent Mix IIb).
(§4) Reactions were carried out by diluting 50 microliters of 2× reagent mixes into 45 microliters of deionized water, followed by addition of 5 microliters of cell lysate. […] Light signal was measured using a luminometer after 15 min incubation at room temperature. The signal in Reagent Mix I was used to detect the presence of beta lactamase in the sample by comparing the signal in the reaction to that of negative controls while the signal ratio was used to determine the resistance of the beta lactamase to clavulanate or imipenem.
(§5) In this example, the signal ratios were expressed as R-Factor values, which were calculated as follows: R-Factor=10×(Reagent Mix II Signal÷Reagent Mix I Signal)

[2] = molecular target: KPC-2 beta lactamase (Klebsiella pneumoniae, UniProt Q9F663); assay: as above; format: biochemical; conditions: 64 micrograms/mL in 2× mix, lysate dilution 1:10
Sequence of KPC-2 beta lactamase (Q9F663 25-293 limits assumed): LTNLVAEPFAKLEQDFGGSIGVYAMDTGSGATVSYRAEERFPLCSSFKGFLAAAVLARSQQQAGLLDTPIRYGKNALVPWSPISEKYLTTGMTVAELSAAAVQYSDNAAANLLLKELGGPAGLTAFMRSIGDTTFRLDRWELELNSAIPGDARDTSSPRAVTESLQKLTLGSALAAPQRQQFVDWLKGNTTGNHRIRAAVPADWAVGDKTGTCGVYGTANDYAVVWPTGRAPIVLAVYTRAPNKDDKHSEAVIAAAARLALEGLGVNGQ
Procedure: as §1, §2, §3, §4, §5

[3] = molecular target: New Deli Metallo-beta lactamase (NDM-2) (Klebsiella pneumoniae, UniProt C7C422, P28A); assay: as above; format: biochemical; conditions: 64 micrograms/mL in 2× mix, lysate dilution 1:2
Sequence of New Deli Metallo-beta lactamase (NDM-2) (C7C422 29-270 P28A (numbered from the first residue shown)): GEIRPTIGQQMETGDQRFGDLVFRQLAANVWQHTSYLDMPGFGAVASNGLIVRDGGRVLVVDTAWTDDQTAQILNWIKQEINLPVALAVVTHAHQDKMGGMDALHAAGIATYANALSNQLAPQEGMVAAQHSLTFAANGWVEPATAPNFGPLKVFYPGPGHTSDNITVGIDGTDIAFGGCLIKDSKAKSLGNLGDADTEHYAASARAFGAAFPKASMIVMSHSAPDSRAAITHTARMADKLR
Procedure: as §1, §2, §3, §4, §5

[4] = system: beta lactamase of patient isolate colony; assay: Clavulanate resistance using a single bacterial colony
Procedure: (§6) As described in EXAMPLE 7, the assay consisted of two reagents, Reagent Mix I and Reagent Mix II, where Reagent Mix I contained one master mix without clavulanate while Reagent Mix II contained a master mix with clavulanate. In this example, reagent mixes equivalent to 0.25 mL of the master mixes were lyophilized in test tubes.
(§7) Patient samples were cultured overnight on an agar plate. A single colony was suspended in 2.5 mL sample buffer as described in EXAMPLE 7, of which 0.25 mL was added to Reagent Mixes I and II vials. After incubation at room temperature for 15 min, the reagent vials were inserted into a luminometer for signal measurement.

[5] = system: beta lactamase of patient isolate colony; assay: as above; remark: listed apart in the source
Procedure: as §6, §7

[6] = system: beta lactamase of patient isolate colony; assay: as above; remark: listed apart in the source
Procedure: as §6, §7

[7] = system: beta lactamase of patient isolate colony; assay: as above; remark: listed apart in the source
Procedure: as §6, §7

[8] = molecular target: SHV-2 beta lactamase (Escherichia coli, UniProt P0A9Z7); format: biochemical
Sequence of SHV-2 beta lactamase (P0A9Z7 22-286): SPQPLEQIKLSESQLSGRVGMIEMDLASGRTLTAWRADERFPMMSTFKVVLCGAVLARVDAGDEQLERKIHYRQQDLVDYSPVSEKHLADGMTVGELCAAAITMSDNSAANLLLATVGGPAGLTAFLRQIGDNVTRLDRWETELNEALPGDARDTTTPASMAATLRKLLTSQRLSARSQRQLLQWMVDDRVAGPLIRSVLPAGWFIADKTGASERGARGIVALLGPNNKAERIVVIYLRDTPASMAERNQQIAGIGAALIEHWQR
Procedure: as §1, §2, §3, §4, §5

[9] = system: SHV-2 beta lactamase (Escherichia coli); format: biochemical
Sequence of SHV-2 beta lactamase (Escherichia coli) (P0A9Z7 22-286): as above
Procedure: as §1, §2, §3, §4, §5

[10] = molecular target: p99 beta lactamase (Enterobacter cloacae, UniProt P05364); format: biochemical
Sequence of p99 beta lactamase (P05364 21-381): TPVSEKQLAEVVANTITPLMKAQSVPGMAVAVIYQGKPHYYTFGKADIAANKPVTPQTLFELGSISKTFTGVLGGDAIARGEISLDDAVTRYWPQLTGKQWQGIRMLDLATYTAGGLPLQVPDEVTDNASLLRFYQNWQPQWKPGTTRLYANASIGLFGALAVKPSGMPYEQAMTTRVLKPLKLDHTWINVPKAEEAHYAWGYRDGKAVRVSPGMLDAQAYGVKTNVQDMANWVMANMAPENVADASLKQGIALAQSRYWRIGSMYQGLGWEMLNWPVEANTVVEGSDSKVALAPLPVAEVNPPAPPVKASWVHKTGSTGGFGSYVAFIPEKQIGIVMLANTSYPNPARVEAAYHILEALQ
Procedure: as §1, §2, §3, §4, §5

In the case of `O=C(O)[C@H]1/C(=C/CO)O[C@@H]2CC(=O)N21` [Clavulanate, clavulanate], the R-Factor ([1]; 64 micrograms/mL in 2× mix, lysate undiluted) was 1.18, the “S/N (Signal to Noise Ratio) in inhibitor-containing reagent mix” value ([1]; 64 micrograms/mL in 2× mix, lysate undiluted, 15 min) was 5.00 and the “resistance of the beta lactamase to the substance” value ([1]; judged from R-Factor) was “susceptible”. For the same molecule, the R-Factor [2] was 8.94, the “S/N (Signal to Noise Ratio) in inhibitor-containing reagent mix” value ([2]; 15 min) was 40.00 and the R-Factor ([2]; listed as clavulanate) was “high”. The R-Factor [3] was 6.02, the “S/N (Signal to Noise Ratio) in inhibitor-containing reagent mix” value ([3]; 15 min) was 13.00 and the R-Factor ([3]; listed as clavulanate) was “high”. For the same molecule, the Interpretation ([4]; No. 17, Sample ID 2015) was “susceptible to CA (CA (clavulanate) resistance cutoff R-Factor value: 2.50)”, the R-Factor ([4]; No. 17, Sample ID 2015) was 1.74 and the Interpretation ([4]; No. 18, Sample ID 2022-1) was “susceptible to CA (CA (clavulanate) resistance cutoff R-Factor value: 2.50)”. The R-Factor ([4]; No. 18, Sample ID 2022-1) was 1.31, the Interpretation ([5]; No. 5, Sample ID B612) was “susceptible to CA (CA (clavulanate) resistance cutoff R-Factor value: 2.50)” and the R-Factor ([5]; No. 5, Sample ID B612) was 0.27. The Interpretation ([5]; No. 6, Sample ID B616) was “susceptible to CA (CA (clavulanate) resistance cutoff R-Factor value: 2.50)”, the R-Factor ([5]; No. 6, Sample ID B616) was 0.13 and the Interpretation ([6]; No. 1, Sample ID 1845) was “susceptible to CA (CA (clavulanate) resistance cutoff R-Factor value: 2.50)”. For the same molecule, the R-Factor ([6]; No. 1, Sample ID 1845) was 0.07, the Interpretation ([6]; No. 2, Sample ID 1847) was “susceptible to CA (CA (clavulanate) resistance cutoff R-Factor value: 2.50)” and the R-Factor ([6]; No. 2, Sample ID 1847) was 0.15. The Interpretation ([6]; No. 20, Sample ID B650) was “susceptible to CA (CA (clavulanate) resistance cutoff R-Factor value: 2.50)”, the R-Factor ([6]; No. 20, Sample ID B650) was 0.11 and the Interpretation ([6]; No. 21, Sample ID B671) was “resistant to CA (CA (clavulanate) resistance cutoff R-Factor value: 2.50)”. For the same molecule, the R-Factor ([6]; No. 21, Sample ID B671) was 4.12, the Interpretation ([7]; No. 3, Sample ID 1820) was “resistant to CA (CA (clavulanate) resistance cutoff R-Factor value: 2.50)” and the R-Factor ([7]; No. 3, Sample ID 1820) was 3.67. The Interpretation ([7]; No. 7, Sample ID 1789) was “susceptible to CA (CA (clavulanate) resistance cutoff R-Factor value: 2.50)”, the R-Factor ([7]; No. 7, Sample ID 1789) was 1.14 and the Interpretation ([7]; No. 8, Sample ID 1800) was “resistant to CA (CA (clavulanate) resistance cutoff R-Factor value: 2.50)”. The R-Factor ([7]; No. 8, Sample ID 1800) was 11.13, the Interpretation ([7]; No. 13, Sample ID 1962-2) was “resistant to CA (CA (clavulanate) resistance cutoff R-Factor value: 2.50)” and the R-Factor ([7]; No. 13, Sample ID 1962-2) was 15.47. For the same molecule, the Interpretation ([7]; No. 14, Sample ID 1963) was “resistant to CA (CA (clavulanate) resistance cutoff R-Factor value: 2.50)”, the R-Factor ([7]; No. 14, Sample ID 1963) was 19.95 and the “S/N (Signal to Noise Ratio) in inhibitor-containing reagent mix” value [8] was 1.00. For the same molecule, the “resistance of the beta lactamase to the substance” value [8] was “susceptible”, the R-Factor [9] was 0.23 and the “S/N (Signal to Noise Ratio) in inhibitor-containing reagent mix” value [10] was 48.00.
